Earlier results on 1 compound are cited in patent publication US11234933B1, “Surface-modified emulsomes for intranasal delivery of drugs” (King Abdulaziz University, priority 2020, dated 2022).

For the series the following is noted: oral route, first pass.

As to `CCOC(=O)C1=C[C@]2(CC)CCCN3CCc4c(n1c1ccccc41)[C@@H]32` [VIN, Vinpocetine], the VIN hepatic metabolism was ~75%.
